Test results published in patent US9332756B2, “Liquid formulations of carboxamide arthropodicides” (E I DU PONT DE NEMOURS AND COMPANY, priority 2006, dated 2016).

Tests used:
Format in all cases: in vivo
[1] = test system: western flower thrips (Frankliniella occidentalis Pergande); assay: Test A: control of western flower thrips on sprayed bean plants; settings: spray 500 L/ha, 7 days, immature thrips count
Experimental: For evaluating control of the western flower thrips (Frankliniella occidentalis Pergande) through contact and/or systemic means, each test unit consisted of a bean plant (var. Soleil) with at least two true leaves, which was planted in Redi-earth® medium (Scotts Co.). One plant was considered as one replication; four replications were used per treatment.
Technical material (unformulated) was dissolved in acetone and mixed with water containing 500 ppm of a blend of non-ionic surfactant with organosilicone (Kinetic®, Helena Chemical Co.). Formulated materials were diluted with water only. Rates of the test solutions were reported by the amount of active ingredient in ppm. Plants were sprayed using a TeeJet flat fan spray nozzle positioned 7.5 inches (19 cm) above the tallest plant. Spray flow rate was adjusted to 5.5 mL/sec for an equivalent of 500 L/ha. After spraying of the test solutions, the test units were placed in ventilated enclosures for at least one hour to dry. Thirty adult thrips were then added to each unit, and then the plants were placed in enclosed cages to prevent insect egress. […] Percent control was calculated by dividing the number of immature thrips in a test unit by the number of immature thrips in the untreated unit, subtracting the quotient from 1, and then multiplying the difference by 100%.

[2] = test system: silverleaf whitefly (Bemisia argentifolii Bellows & Perring); assay: Test B: control of silverleaf whitefly on sprayed cotton plants; settings: 144 h, read-out: % Mortality of Silverleaf Whitefly
Source text: For evaluating control of silverleaf whitefly (Bemisia argentifolii Bellows & Perring), the test unit consisted of a 14-21-day-old cotton plant with at least two true leaves, which was planted in Redi-earth® medium (Scotts Co.). The plants were placed in screened cages, where whitefly adults were introduced and allowed to lay eggs for approximately twenty-four hours. Only plants showing egg lay were used for testing. Before spraying the test solutions, the plants were checked again for egg hatch and crawler settlement. One leaf per plant was considered as one replication; four replications were used per treatment.
Test solutions were formulated as described in TEST A. A control solution consisting of 25% acetone in water was also prepared. After spraying, plants were allowed to dry in a ventilated enclosure and held for six days in a growth chamber at 50% relative humidity, 16 h with light (as daytime) at 28° C. and 8 h in dark (as nighttime) at 24° C. After removing all leaves from each test plant, evaluation was made by counting dead and live nymphs present on the underside of the leaves.

[3] = test system: green peach aphid (Myzus persicae); assay: Test C: control of green peach aphid on sprayed radish plants; settings: 144 h, read-out: % Mortality of Green Peach Aphid
Experimental: For evaluating control of green peach aphid (Myzus persicae) through contact and/or systemic means, the test unit consisted of a 3-week old radish plant pre-infested with 30-40 aphids 24 h prior to treatment with test solutions. One plant was considered as one replication, four replications were used per treatment.
After spraying of the formulated test solutions, each test unit was allowed to dry, and the test units were held for 6 days in a growth chamber maintained at 19-21° C. and 50-70% relative humidity. Dead and live of aphids were counted in each test unit to determine percent mortality.

[4] = test system: beet armyworm (Spodoptera exigua); assay: Test D: rainfastness for the control of beet armyworm on sprayed cotton plants; settings: Rain: Yes (about 95 mm simulated rain 2 h after spraying), four days after infestation
Source text: For evaluating rainfastness (resistance to wash-off) for the control of beet armyworm (Spodoptera exigua), the test unit consisted of a cotton plant grown in a pot containing Redi-earth® medium. Test solutions were formulated as described in TEST A. When the plants were at the 4-6 true leaf growth stage, the plants were sprayed with the formulated test solution using a belt sprayer with nozzle positioned 19 cm above the plants and providing an application volume of 234 liters/ha. After spraying of the formulated test solutions, each test unit was allowed to dry for 2 h and then exposed to about 95 mm of simulated rain in a greenhouse. Plants were then allowed to dry, and leaves were cut and placed on agar in 16-cell plastic trays. One 3-day-old, laboratory reared beet armyworm larva was placed in each cell, and the cells were covered with a plastic lid. Two 16-cell trays were used per treatment. Trays were held in a growth chamber at 75% relative humidity, 16 h with light (as daytime) and 8 h in dark (as nighttime) at 25° C. Four days after infestation, each test unit was evaluated for larvae mortality, and the mean concentrations killing 50% of the population (mean LC50) were calculated and are listed in Table 4D.

Row | Structure (SMILES) | % Control of Western Flower Thrips ([1]; 100 ppm a.i.) [%] | % Control of Western Flower Thrips ([1]; 200 ppm a.i.) [%] | mortality at 22 ppm [2] [%] | mortality at 66 ppm [2] [%] | mortality at 200 ppm [2] [%] | mortality at 600 ppm [2] [%] | mortality at 50 ppm [3] [%] | mortality at 100 ppm [3] [%] | mortality at 200 ppm [3] [%] | mortality at 400 ppm [3] [%] | Mean LC50 of Beet Armyworm [4] | Mean LC50 of Beet Armyworm ([4]; listed as Compound 1) | Mean LC50 of Beet Armyworm ([4]; listed as Compound 2)
1 | CNC(=O)c1cc(C#N)cc(C)c1NC(=O)c1cc(Br)nn1-c1ncccc1Cl [Technical Compound 1, 3-bromo-1-(3-chloro-2-pyridinyl)-N-[4-cyano-2-methyl-6-[(methylamino)carbonyl]phenyl]-1H-pyrazole-5-carboxamide] | 74 | 72 | 90 | 91 | 100 | 100 | 8 | 9 | 19 | 35 | Very little activity | very little activity | –
2 | CNC(=O)c1cc(Cl)cc(C)c1NC(=O)c1cc(Br)nn1-c1ncccc1Cl [Technical Compound 2, 3-bromo-N-[4-chloro-2-methyl-6-[(methylamino)carbonyl]phenyl]-1-(3-chloro-2-pyridinyl)-1H-pyrazole-5-carboxamide] | – | – | – | – | – | – | – | – | – | – | Inactive | – | no detectable activity
